A short description of series [1]: physchem. The settings on record: 25 °C. The source says:
Fine and highly monodispersed coloring particles intended according to aspects of the present invention may contain a dye hardly soluble in the water contained in the second liquid described later. […] The solubility parameter of the dye, however, may vary depending on the pH of the water containing it.
The solubility parameter used according to aspects of the present invention can be calculated by measuring the degree of water solubility (mol/L) of the dye by any known experimental method and then substituting the measurement into equation (1). […] For dyes such as metal complex dyes and salt dyes, the metal or salt is first removed, and then the degree of solubility is calculated using ACD/Structure Design Suite and the solubility parameter is calculated from the value.

The conditions of series [2]: in water; cited from earlier work.

Each structure is given as a SMILES string. ≈ marks a conversion by molar mass, not a printed value.

For orientation: solubility means the concentration that dissolves in the medium under given conditions. A high value points to much dissolved substance.

`CC1(C)Nc2cccc3c(/N=N/c4ccc(/N=N/c5ccccc5)c5ccccc45)ccc(c23)N1` [dye 1] showed a solubility in series [1] (pH 6, aqueous buffer) of at most 0.631 nM.
Still for that read-out and setting: next, `Cc1cccc(Nc2cccc3c2C(=O)c2cccc(Nc4cccc(C)c4)c2C3=O)c1` [dye 2]: at most 0.631 nM.
`Cc1cc(Br)c(Nc2ccc(O)c3c2C(=O)c2ccccc2C3=O)c(Br)c1` [dye 4]: the solubility in series [1] (pH 6, aqueous buffer) is 0.794 nM (≈ 0.387 ng/mL); in series [1] (pH 11, aqueous buffer), 813 nM (≈ 396 ng/mL).
For `CCCCCCCCCCCCOS(=O)(=O)[O-].[Na+]` [sodium dodecyl sulfate], the Critical micelle concentration in series [2] is recorded as 0.0025 g/mL.

Values taken from patent US20120190788A1, “COLORING PARTICLES” (CANON KABUSHIKI KAISHA, priority 2011, published 2012).
